{"source": "paper PMC4550478", "about": "“Metronidazole-triazole conjugates: Activity against Clostridium difficile and parasites” (European Journal of Medicinal Chemistry, 2015)", "key": {"[1]": {"tested_on": "C. difficile NAP1/027 ATCC BAA-1803", "experiment": "Metronidazole E-test on BAKHS, C. difficile ATCC BAA-1803", "format": "cell-based, Clostridium difficile", "settings": "Clostridioides difficile, ATCCBAA1803, BAKHS agar", "method": "(§1) Mid-log phase (OD600 =0.5- 0.6) culture was diluted to a 0.5 McFarland standard (OD600~ 0.1) in prereduced broth. The diluted culture was inoculated onto duplicate BAKHS agar plate using a cotton tip applicator. The inoculum was allowed to dry before the Metronidazole E-test strip (Metronidazole MZH 256-S30, bioMérieux Australia) was placed in duplicate on the surface of the agar. The agar plate was inverted and incubated for up to 96 hr. The MIC was read as the point at which the elliptical zone of inhibition intercepted the E-test strip at 24, 48 and 96 hr."}, "[2]": {"tested_on": "C. difficile NAP1/027 CD26A54_R", "set-up": "method as in PMID 24400070", "settings": "cited from earlier work"}, "[3]": {"tested_on": "C. difficile NAP1/027 CD26A54_R", "experiment": "Metronidazole E-test on BAKHS, C. difficile CD26A54_R", "format": "cell-based, Clostridium difficile", "settings": "BAKHS agar; for MIC: Clostridioides difficile", "method": "as §1"}, "[4]": {"tested_on": "H. pylori clinical isolate 13/25", "experiment": "Metronidazole E-test, H. pylori 13/25", "format": "cell-based", "settings": "Helicobacter pylori", "method": "(§2) Helicobacter pylori strains, with a range of resistance levels to metronidazole (256 µg/ml, 64 µg/ml, 24 µg/ml, 2 µg/ml, and 0.04 µg/ml), were selected and obtained from Helicobacter Research Laboratory, University of Western Australia. The resistance strength to metronidazole was recorded according to eTest (bioMérieux). H. pylori strain 26695 was used as the control. H. pylori was maintained on the non-selective Columbia blood agar plates (CBA) (Columbia agar base Oxoid) with 5% horse blood and incubated at 37 °C and 10% CO2 for 48 hrs. […] Each of the H. pylori strains were harvested, OD600 calibrated to 0.3, and spotted in triplicate on CBA pre-mixed with the compound. The lowest concentration of antibiotic showing no growth was read as the MIC. The experiment was performed in duplicate."}, "[5]": {"tested_on": "H. pylori clinical isolate 98/285", "experiment": "Metronidazole E-test, H. pylori 98/285", "format": "cell-based", "settings": "Helicobacter pylori", "method": "as §2"}, "[6]": {"tested_on": "H. pylori clinical isolate 13/61", "experiment": "Metronidazole E-test, H. pylori 13/61", "format": "cell-based", "settings": "Helicobacter pylori", "method": "as §2"}, "[7]": {"settings": "in vivo; cited from earlier work"}, "[8]": {"tested_on": "C. difficile NAP1/027 CD26A54_S", "experiment": "Metronidazole E-test on BAKHS, C. difficile CD26A54_S", "format": "cell-based, Clostridium difficile", "settings": "Clostridioides difficile, BAKHS agar", "method": "as §1"}, "[9]": {"tested_on": "C. difficile NAP1/027 CD26A54_R", "set-up": "method as in PMID 24400070", "settings": "cited from earlier work", "remark": "listed apart in the source"}}, "data": [{"smiles": "Cc1ncc([N+](=O)[O-])n1CCO", "note": "[Compound 1, metronidazole]", "values": [{"measurement": "MIC", "setting": "[1]; 24 hrs", "result": 2, "unit": "µg/mL"}, {"measurement": "MIC", "setting": "[1]; 48 hrs", "result": 2, "unit": "µg/mL"}, {"measurement": "MIC", "setting": "[1]; 96 hrs", "result": 2, "unit": "µg/mL"}, {"measurement": "MIC to metronidazole in broth, MtzR C. difficile, reported by Chong et al.", "setting": "[2]", "result": 8, "unit": "µg/mL"}, {"measurement": "Metronidazole E-test MIC CD26A54_R", "setting": "[3]; 48 hrs", "result": 48, "unit": "µg/mL"}, {"measurement": "MIC", "setting": "[3]; 24 hrs", "result": 32, "unit": "µg/mL"}, {"measurement": "MIC", "setting": "[3]; 48 hrs", "result": 48, "unit": "µg/mL"}, {"measurement": "MIC", "setting": "[3]; 96 hrs", "result": 48, "unit": "µg/mL"}, {"measurement": "MIC", "setting": "[4]", "result": 2, "unit": "µg/mL"}, {"measurement": "MIC", "setting": "[5]", "result": 24, "unit": "µg/mL"}, {"measurement": "MIC", "setting": "[6]", "result": 256, "unit": "µg/mL"}, {"measurement": "oral bioavailable", "setting": "[7]", "result": 100, "unit": "%"}, {"measurement": "MIC", "setting": "[8]; 24 hrs", "result": 6, "unit": "µg/mL"}, {"measurement": "MIC", "setting": "[8]; 48 hrs", "result": 8, "unit": "µg/mL"}, {"measurement": "MIC", "setting": "[8]; 96 hrs", "result": 8, "unit": "µg/mL"}, {"measurement": "Metronidazole MIC by E-test, MtzR C. difficile, reported by Chong et al.", "setting": "[9]", "result": "> 32", "unit": "µg/mL"}]}]}
